Results from article PMC13095444, “Discovery of RGS2-FBXO44 interaction inhibitors using a cell-based NanoBit assay” (Molecular Pharmacology, 2025).

Target: T1, RGS4 (Homo sapiens, UniProt P49798)
T1 construct: expressed in transfected cells; host or cells: HEK-293T, transient transfection
Test: Cellular thermal shift assay (CETSA), RGS4-HA
Format: binding
Conditions: 100 μM overnight (16–18 hours); gradient 40–60 °C; vs DMSO
Experimental: The cells in 100 mm dishes were harvested by trypsination in reduced serum media and transferred to 15 mL conical tubes. The cells were centrifuged at 300 × g for 3 minutes. Media was removed, and the cell pellet was washed with 10 mL of PBS. The cells were then resuspended in 500 μL of PBS and aliquoted into polymerase chain reaction (PCR) tubes. The cells were then heated in a PCR gradient (40–60 °C) for 3 minutes and then transferred to a 25 °C PCR block for 3 minutes. Following this, cells were immediately flash-frozen using liquid nitrogen. The cells were freeze-thawed 3 times to lyse the cells and then spun down at 20,000 × g for 20 minutes. The supernatant was then added to sample buffer and heated for 5 minutes at 95 °C before SDS-PAGE and western blot analysis.
We next assessed whether the action of compound 10 to inhibit the RGS2-FBXO44 interaction is through direct binding to either protein. […] The cells were lysed and analyzed by western blot to determine melting temperatures (Tm). […] We also assessed the effect of compound 10 on the Tm for RGS4, which is closely related to RGS2 and also subject to proteasomal degradation, however, independent of FBXO44 ([Lee et al, 2005]; [Sjögren et al, 2015]).

T1 sequence (P49798 whole entry, species assumed): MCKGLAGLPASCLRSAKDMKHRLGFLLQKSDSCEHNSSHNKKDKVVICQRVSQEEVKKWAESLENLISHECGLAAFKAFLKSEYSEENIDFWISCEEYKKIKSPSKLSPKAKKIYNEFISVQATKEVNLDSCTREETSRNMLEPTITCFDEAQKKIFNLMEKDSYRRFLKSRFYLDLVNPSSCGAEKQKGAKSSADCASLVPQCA

With `CCC1CCCCN1S(=O)(=O)c1cc(Br)ccc1OC` (stereo not shown) [Compound 10] the “Effect on the Tm for RGS4” value was “no significant effect”.
